ChEMBL document CHEMBL4321812, “Structure-based rational design of staurosporine-based fluorescent probe with broad-ranging kinase affinity for kinase panel application” (Bioorg Med Chem Lett, 2019)

Key:
[1] = target: Fibroblast growth factor receptor 2 (Homo sapiens, UniProt P21802); test: Binding affinity to recombinant N-terminal His-FLAG-GST-tagged FGFR2 (unknown origin) (399 to 821 residues) expressed in baculovirus infected Sf9 insect cells incubated for 1 hr by TR-FRET assay
[2] = target: Serine/threonine-protein kinase BRSK1 (Homo sapiens, UniProt Q8TDC3); test: Binding affinity to recombinant full-length N-terminal His-FLAG-GST-tagged BRSK1 (unknown origin) expressed in baculovirus infected Sf9 insect cells incubated for 1 hr by TR-FRET assay
[3] = target: Serine/threonine-protein kinase N1 (Homo sapiens, UniProt Q16512); test: Binding affinity to recombinant full-length N-terminal His-FLAG-GST-tagged PKN1 (unknown origin) expressed in baculovirus infected Sf9 insect cells incubated for 1 hr by TR-FRET assay
[4] = target: Dual specificity tyrosine-phosphorylation-regulated kinase 1A (Homo sapiens, UniProt Q13627); test: Binding affinity to recombinant full-length N-terminal His-FLAG-GST-tagged DYRK1A (unknown origin) expressed in baculovirus infected Sf9 insect cells incubated for 1 hr by TR-FRET assay
[5] = target: Tyrosine-protein kinase receptor UFO (Homo sapiens, UniProt P30530); test: Binding affinity to recombinant full-length N-terminal His-FLAG-GST-tagged AXL (unknown origin) expressed in baculovirus infected Sf9 insect cells incubated for 1 hr by TR-FRET assay
[6] = target: MAP/microtubule affinity-regulating kinase 3 (Homo sapiens, UniProt P27448); test: Binding affinity to recombinant full-length N-terminal His-FLAG-GST-tagged MARK3 (unknown origin) expressed in baculovirus infected Sf9 insect cells incubated for 1 hr by TR-FRET assay
[7] = target: Serine/threonine-protein kinase 26 (Homo sapiens, UniProt Q9P289); test: Binding affinity to recombinant full-length N-terminal His-FLAG-tagged MST4 (unknown origin) expressed in baculovirus infected Sf9 insect cells incubated for 1 hr by TR-FRET assay
[8] = target: Rho-associated protein kinase 1 (Homo sapiens, UniProt Q13464); test: Binding affinity to recombinant full-length N-terminal His-FLAG-GST-tagged ROCK1 (unknown origin) (1 to 477 residues) expressed in baculovirus infected Sf9 insect cells incubated for 1 hr by TR-FRET assay
[9] = target: Serine/threonine-protein kinase PAK 4 (Homo sapiens, UniProt O96013); test: Binding affinity to recombinant human full-length N-terminal GST-tagged PAK4 expressed in baculovirus expression system using SGKtide as substrate incubated for 1 hr by TR-FRET assay
[10] = target: Ribosomal protein S6 kinase alpha-3 (Homo sapiens, UniProt P51812); test: Binding affinity to recombinant human full length N-terminal GST-tagged RPS6KA3 expressed in baculovirus expression system using S6K peptide as substrate incubated for 1 hr by TR-FRET assay
[11] = target: 5'-AMP-activated protein kinase catalytic subunit alpha-2 (Homo sapiens, UniProt P54646); test: Binding affinity to recombinant full-length N-terminal His-FLAG-GST-tagged PRKAA2 (unknown origin) (10 to 552 residues) expressed in baculovirus infected Sf9 insect cells incubated for 1 hr by TR-FRET assay
CDK7/Cyclin H/MNAT1 = CDK7/Cyclin H/MNAT1 (Homo sapiens, UniProt P50613); test: Binding affinity to recombinant human full length N-terminal GST-tagged and N-terminal GST-tagged CDK7/cyclinH/MAT1 expressed in baculovirus expression system using CTD3 peptide as substrate incubated for 1 hr by TR-FRET assay
[12] = target: Tyrosine-protein kinase Yes (Homo sapiens, UniProt P07947); test: Binding affinity to recombinant full-length N-terminal His-FLAG-GST-tagged YES1 (unknown origin) expressed in baculovirus infected Sf9 insect cells incubated for 1 hr by TR-FRET assay
[13] = target: MAP kinase-interacting serine/threonine-protein kinase 2 (Homo sapiens, UniProt Q9HBH9); test: Binding affinity to recombinant human full-length N-terminal GST-tagged MKNK2 expressed in baculovirus expression system using RS peptide as substrate incubated for 1 hr by TR-FRET assay
[14] = target: Serine/threonine-protein kinase Sgk1 (Homo sapiens, UniProt O00141); test: Binding affinity to recombinant full-length N-terminal His-FLAG-GST-tagged SGK1 (unknown origin) (60 to 431 residues) expressed in baculovirus infected Sf9 insect cells incubated for 1 hr by TR-FRET assay
[15] = target: Serine/threonine-protein kinase pim-1 (Homo sapiens, UniProt P11309); test: Binding affinity to recombinant human full-length N-terminal his-tagged PIM1 expressed in baculovirus expression system using S6K2 peptide as substrate incubated for 1 hr by TR-FRET assay
[16] = target: Protein kinase C beta type (Homo sapiens, UniProt P05771); test: Binding affinity to recombinant full-length N-terminal His-FLAG-tagged PRKCB (unknown origin) expressed in baculovirus infected Sf9 insect cells incubated for 1 hr by TR-FRET assay
[17] = target: Protein kinase C alpha type (Homo sapiens, UniProt P17252); test: Binding affinity to recombinant full-length N-terminal His-FLAG-GST-tagged PRKCA (unknown origin) expressed in baculovirus infected Sf9 insect cells incubated for 1 hr by TR-FRET assay
[18] = target: Calcium/calmodulin-dependent protein kinase type II subunit beta (Homo sapiens, UniProt Q13554); test: Binding affinity to recombinant human full length N-terminal GST-tagged CAMK2B expressed in baculovirus expression system using GS peptide as substrate incubated for 1 hr in presence of calmodulin by TR-FRET assay
[19] = target: Platelet-derived growth factor receptor beta (Homo sapiens, UniProt P09619); test: Binding affinity to recombinant human N-terminal his-tagged PDGFRB (558 to 1106 residues) expressed in baculovirus expression system incubated for 1 hr by TR-FRET assay
CDK8/Cyclin C = CDK8/Cyclin C (Homo sapiens, UniProt P49336); test: Binding affinity to recombinant human full length N-terminal GST-tagged CDK8 co-expressed with N-terminal GST-tagged CyclinC expressed in baculovirus expression system using RNA polymerase peptide as substrate incubated for 1 hr by TR-FRET assay
[20] = target: Tyrosine-protein kinase Lck (Homo sapiens, UniProt P06239); test: Binding affinity to recombinant human full length N-terminal GST-tagged LCK expressed in baculovirus expression system using srctide as substrate incubated for 1 hr by TR-FRET assay
[21] = target: Tyrosine-protein kinase Blk (Homo sapiens, UniProt P51451); test: Binding affinity to recombinant human full length N-terminal GST-tagged BLK expressed in baculovirus expression system using srctide as substrate incubated for 1 hr by TR-FRET assay
[22] = target: Death-associated protein kinase 1 (Homo sapiens, UniProt P53355); test: Binding affinity to recombinant full-length N-terminal His-FLAG-GST-tagged DAPK1 (unknown origin) (1 to 289 residues) expressed in baculovirus infected Sf9 insect cells incubated for 1 hr by TR-FRET assay
[23] = target: Protein kinase C gamma type (Homo sapiens, UniProt P05129); test: Binding affinity to recombinant full-length N-terminal His-FLAG-tagged PRKCG (unknown origin) expressed in baculovirus infected Sf9 insect cells incubated for 1 hr by TR-FRET assay

Serine/threonine-protein kinase N1, sequence (Q16512 whole entry): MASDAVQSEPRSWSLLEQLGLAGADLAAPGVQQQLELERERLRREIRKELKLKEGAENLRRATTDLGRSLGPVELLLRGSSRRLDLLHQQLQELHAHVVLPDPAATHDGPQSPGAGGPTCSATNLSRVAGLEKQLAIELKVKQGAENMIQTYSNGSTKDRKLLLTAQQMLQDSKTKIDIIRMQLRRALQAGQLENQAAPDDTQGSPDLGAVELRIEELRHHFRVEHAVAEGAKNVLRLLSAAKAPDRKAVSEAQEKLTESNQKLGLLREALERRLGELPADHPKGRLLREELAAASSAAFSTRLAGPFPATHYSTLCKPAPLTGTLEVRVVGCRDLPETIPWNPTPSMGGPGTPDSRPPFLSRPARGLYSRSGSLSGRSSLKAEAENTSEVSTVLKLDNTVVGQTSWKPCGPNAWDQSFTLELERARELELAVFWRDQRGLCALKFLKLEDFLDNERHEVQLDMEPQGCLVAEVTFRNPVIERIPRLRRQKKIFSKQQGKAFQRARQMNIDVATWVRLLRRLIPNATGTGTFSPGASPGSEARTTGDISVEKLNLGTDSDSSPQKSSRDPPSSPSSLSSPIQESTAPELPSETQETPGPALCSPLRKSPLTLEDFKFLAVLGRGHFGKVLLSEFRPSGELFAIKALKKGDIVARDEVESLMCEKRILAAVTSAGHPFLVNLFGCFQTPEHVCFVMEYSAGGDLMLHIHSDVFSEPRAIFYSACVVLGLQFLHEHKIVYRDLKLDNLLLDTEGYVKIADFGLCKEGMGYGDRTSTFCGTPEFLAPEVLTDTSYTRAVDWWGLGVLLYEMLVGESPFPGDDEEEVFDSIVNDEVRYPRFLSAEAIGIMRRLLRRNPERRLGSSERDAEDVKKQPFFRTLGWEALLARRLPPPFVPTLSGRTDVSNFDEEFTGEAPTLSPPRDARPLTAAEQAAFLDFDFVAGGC
Rho-associated protein kinase 1, sequence (Q13464 whole entry, the tested form may be a part): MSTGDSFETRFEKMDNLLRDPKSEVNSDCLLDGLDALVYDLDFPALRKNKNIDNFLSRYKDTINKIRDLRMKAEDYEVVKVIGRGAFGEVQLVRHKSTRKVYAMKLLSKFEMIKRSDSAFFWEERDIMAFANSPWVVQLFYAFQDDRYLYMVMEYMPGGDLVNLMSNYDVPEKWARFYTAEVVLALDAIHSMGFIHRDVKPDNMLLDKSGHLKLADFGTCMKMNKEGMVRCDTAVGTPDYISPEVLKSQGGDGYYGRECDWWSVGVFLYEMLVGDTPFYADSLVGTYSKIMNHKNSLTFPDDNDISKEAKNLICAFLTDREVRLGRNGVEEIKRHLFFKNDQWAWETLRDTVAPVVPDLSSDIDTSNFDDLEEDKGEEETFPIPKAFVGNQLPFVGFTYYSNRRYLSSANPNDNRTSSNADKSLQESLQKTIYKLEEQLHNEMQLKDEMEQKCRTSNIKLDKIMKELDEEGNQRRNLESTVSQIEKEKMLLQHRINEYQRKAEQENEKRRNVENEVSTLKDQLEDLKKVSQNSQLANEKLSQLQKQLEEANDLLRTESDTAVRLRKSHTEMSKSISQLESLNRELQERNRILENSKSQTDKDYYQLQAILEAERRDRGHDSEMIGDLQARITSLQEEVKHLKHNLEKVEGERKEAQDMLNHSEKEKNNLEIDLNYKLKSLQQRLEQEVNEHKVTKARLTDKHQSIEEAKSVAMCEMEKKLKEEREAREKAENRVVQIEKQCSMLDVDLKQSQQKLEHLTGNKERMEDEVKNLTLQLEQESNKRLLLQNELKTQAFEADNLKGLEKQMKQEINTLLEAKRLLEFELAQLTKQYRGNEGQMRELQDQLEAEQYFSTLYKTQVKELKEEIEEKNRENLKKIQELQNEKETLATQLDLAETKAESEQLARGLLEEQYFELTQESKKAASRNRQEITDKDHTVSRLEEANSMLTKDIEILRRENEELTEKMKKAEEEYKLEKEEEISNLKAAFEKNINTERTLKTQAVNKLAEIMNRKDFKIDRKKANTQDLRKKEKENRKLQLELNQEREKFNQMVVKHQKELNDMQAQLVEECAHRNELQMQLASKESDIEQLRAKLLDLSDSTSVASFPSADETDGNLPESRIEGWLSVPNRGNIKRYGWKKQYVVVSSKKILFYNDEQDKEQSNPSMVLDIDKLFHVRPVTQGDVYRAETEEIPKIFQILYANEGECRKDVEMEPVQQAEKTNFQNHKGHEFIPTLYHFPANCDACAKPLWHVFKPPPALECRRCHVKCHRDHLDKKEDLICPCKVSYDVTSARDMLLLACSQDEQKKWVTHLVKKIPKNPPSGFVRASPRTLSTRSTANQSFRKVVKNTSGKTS
CDK8/Cyclin C, sequence (P49336 whole entry): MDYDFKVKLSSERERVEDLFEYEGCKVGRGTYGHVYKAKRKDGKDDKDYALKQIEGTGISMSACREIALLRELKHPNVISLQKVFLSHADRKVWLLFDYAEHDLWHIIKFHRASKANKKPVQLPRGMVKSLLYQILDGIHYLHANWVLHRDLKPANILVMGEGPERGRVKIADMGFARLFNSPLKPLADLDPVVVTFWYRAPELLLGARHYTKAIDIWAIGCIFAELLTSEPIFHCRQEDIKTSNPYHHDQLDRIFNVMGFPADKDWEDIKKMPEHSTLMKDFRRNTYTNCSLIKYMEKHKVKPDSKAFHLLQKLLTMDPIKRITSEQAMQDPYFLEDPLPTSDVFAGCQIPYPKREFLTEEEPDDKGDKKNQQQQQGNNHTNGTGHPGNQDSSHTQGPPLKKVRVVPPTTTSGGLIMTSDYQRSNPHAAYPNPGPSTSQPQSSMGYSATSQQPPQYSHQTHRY
CDK8/Cyclin C, sequence (P24863 whole entry, further chain): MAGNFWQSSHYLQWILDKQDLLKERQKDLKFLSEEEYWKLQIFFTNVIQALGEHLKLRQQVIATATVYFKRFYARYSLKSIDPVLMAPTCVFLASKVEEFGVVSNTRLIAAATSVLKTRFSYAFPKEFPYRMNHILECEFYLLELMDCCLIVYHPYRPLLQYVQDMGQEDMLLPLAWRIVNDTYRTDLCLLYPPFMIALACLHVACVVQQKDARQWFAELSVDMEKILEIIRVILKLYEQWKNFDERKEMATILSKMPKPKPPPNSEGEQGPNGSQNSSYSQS
Fibroblast growth factor receptor 2, sequence (P21802 whole entry, the tested form may be a part): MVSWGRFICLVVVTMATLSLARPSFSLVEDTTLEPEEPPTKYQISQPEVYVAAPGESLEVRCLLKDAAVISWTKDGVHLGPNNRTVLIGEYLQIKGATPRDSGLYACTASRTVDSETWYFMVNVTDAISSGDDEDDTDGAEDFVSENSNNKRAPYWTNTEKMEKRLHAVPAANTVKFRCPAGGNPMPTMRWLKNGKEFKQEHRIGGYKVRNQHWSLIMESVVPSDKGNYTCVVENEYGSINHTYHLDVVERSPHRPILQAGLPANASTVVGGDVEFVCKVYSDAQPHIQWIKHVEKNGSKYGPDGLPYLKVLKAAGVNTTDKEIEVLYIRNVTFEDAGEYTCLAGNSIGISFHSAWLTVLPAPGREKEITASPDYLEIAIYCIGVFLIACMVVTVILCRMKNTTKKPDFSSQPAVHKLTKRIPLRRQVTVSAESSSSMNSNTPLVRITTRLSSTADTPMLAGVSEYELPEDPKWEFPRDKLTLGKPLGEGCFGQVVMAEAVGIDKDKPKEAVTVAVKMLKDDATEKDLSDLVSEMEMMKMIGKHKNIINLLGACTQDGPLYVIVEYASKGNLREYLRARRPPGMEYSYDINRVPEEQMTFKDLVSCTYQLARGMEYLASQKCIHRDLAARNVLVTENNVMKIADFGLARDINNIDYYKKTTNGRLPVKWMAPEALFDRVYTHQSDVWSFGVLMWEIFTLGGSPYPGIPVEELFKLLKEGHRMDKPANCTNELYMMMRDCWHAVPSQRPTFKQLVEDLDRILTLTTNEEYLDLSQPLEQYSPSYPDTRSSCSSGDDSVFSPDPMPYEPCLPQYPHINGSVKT
Serine/threonine-protein kinase Sgk1, sequence (O00141 whole entry, the tested form may be a part): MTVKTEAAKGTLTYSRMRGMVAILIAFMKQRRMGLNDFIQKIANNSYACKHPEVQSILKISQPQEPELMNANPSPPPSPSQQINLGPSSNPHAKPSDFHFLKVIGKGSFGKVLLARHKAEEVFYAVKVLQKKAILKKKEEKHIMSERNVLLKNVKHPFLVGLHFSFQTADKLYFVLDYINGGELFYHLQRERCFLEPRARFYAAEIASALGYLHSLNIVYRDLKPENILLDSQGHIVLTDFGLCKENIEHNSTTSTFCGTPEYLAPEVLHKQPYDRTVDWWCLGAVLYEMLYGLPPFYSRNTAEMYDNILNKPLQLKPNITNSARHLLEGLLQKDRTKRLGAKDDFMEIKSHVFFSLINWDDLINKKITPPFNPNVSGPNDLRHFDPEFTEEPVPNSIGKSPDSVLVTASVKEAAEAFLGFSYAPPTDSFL
Calcium/calmodulin-dependent protein kinase type II subunit beta, sequence (Q13554 whole entry, the tested form may be a part): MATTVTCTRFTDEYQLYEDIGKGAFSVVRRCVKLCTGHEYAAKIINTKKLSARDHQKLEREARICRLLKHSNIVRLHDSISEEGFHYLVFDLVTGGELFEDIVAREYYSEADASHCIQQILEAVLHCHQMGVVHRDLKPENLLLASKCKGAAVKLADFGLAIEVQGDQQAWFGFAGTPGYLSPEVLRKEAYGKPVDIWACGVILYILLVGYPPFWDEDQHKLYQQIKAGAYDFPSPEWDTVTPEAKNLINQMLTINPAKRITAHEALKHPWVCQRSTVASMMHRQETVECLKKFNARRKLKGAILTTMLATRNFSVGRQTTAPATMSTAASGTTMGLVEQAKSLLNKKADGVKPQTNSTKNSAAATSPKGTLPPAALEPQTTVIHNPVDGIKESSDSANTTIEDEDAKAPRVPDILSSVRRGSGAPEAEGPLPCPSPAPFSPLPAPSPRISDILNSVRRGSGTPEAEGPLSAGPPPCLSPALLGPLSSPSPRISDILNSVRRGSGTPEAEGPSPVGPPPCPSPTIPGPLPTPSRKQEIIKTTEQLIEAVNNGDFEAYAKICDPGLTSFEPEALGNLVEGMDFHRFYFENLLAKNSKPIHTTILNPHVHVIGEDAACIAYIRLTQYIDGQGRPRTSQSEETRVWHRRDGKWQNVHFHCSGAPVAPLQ

CO[C@@H]1[C@H](NCCOCCOCCOCCNC(=O)CCC2=[N+]3C(=Cc4c(C)cc(C)n4[B-]3(F)F)C=C2)C[C@H]2O[C@]1(C)n1c3ccccc3c3c4c(c5c6ccccc6n2c5c31)C(=O)NC4
Kd [1]: 242 nM
Kd [2]: 109 nM
Kd [3]: 11 nM
Kd [4]: 138 nM
Kd [5]: 313 nM
Kd [6]: 13 nM
Kd [7]: 687 nM
Kd [8]: 35 nM
Kd [9]: 5 nM
Kd [10]: 4 nM
Kd [11]: 45 nM
Kd (CDK7/Cyclin H/MNAT1): 894 nM
Kd [12]: 601 nM
Kd [13]: 162 nM
Kd [14]: 331 nM
Kd [15]: 207 nM
Kd [16]: 65 nM
Kd [17]: 92 nM
Kd [18]: 19 nM
Kd [19]: 165 nM
Kd (CDK8/Cyclin C): 299 nM
Kd [20]: 94 nM
Kd [21]: 63 nM
Kd [22]: 69 nM
Kd [23]: 72 nM

CO[C@@H]1[C@H](N(C)CCOCCOCCOCCNC(=O)CCC2=[N+]3C(=Cc4c(C)cc(C)n4[B-]3(F)F)C=C2)C[C@H]2O[C@]1(C)n1c3ccccc3c3c4c(c5c6ccccc6n2c5c31)C(=O)NC4
Kd [1]: 361 nM
Kd [2]: 194 nM
Kd [3]: 6 nM
Kd [4]: 102 nM
Kd [5]: 559 nM
Kd [6]: 6 nM
Kd [7]: 983 nM
Kd [8]: 26 nM
Kd [9]: 6 nM
Kd [10]: 2 nM
Kd [11]: 46 nM
Kd (CDK7/Cyclin H/MNAT1): 819 nM
Kd [12]: > 2000 nM
Kd [13]: 205 nM
Kd [14]: 566 nM
Kd [15]: 285 nM
Kd [16]: 17 nM
Kd [17]: 43 nM
Kd [18]: 12 nM
Kd [19]: 257 nM
Kd (CDK8/Cyclin C): 148 nM
Kd [20]: 92 nM
Kd [21]: 45 nM
Kd [22]: 59 nM
Kd [23]: 46 nM
